Experiments:
[1] = system: Hepatitis C virus; assay: Inhibition of HCV 1b NS3/4A protease by time-resolved fluorescence assay; parameters: species or system Hepatitis C virus subtype 1b
[2] = system: Hepatitis C virus; assay: Antiviral activity against HCV 1b infected in human Huh7 cells by bicistronic replicon RNA assay in presence of 10% fetal bovine serum; format: functional, organism-based, Hepacivirus hominis; conditions: genotype 1b, Huh-7
[3] = system: Hepatitis C virus; assay: Antiviral activity against HCV 1b infected in human Huh7 cells by bicistronic replicon RNA assay in presence of 50% normal human serum; format: functional, organism-based, Hepacivirus hominis; conditions: genotype 1b, Huh-7
[4] = (§1) AUC (0 to 4 hrs) in Sprague-Dawley rat at 5 mg/kg, po; format: ADME, organism-based, Plasma; parameters: time < 4 hr, dose 5 mg/kg, route oral; conditions: Sprague-Dawley, plasma
[5] = Drug level in Sprague-Dawley rat liver at 5 mg/kg, po after 4 hrs; format: ADME, organism-based; parameters: dose 5 mg/kg, route oral; conditions: read-out: Drug uptake
[6] = Drug level in Sprague-Dawley rat liver at 4 mg/kg, po after 4 hrs; format: ADME, organism-based; parameters: dose 4 mg/kg, route oral; conditions: read-out: Drug uptake
[7] = Oral bioavailability in Sprague-Dawley rat at 4 mg/kg; format: ADME, organism-based; conditions: in vivo
[8] = Plasma clearance in Sprague-Dawley rat at 4 mg/kg, po; format: ADME, organism-based; parameters: dose 4 mg/kg, route oral; conditions: Sprague-Dawley, plasma
[9] = AUC (0 to 4 hrs) in Sprague-Dawley rat at 4 mg/kg, po; format: ADME, organism-based, Plasma; parameters: time < 4 hr, dose 4 mg/kg, route oral; conditions: Sprague-Dawley, plasma
[10] = system: Rattus norvegicus; assay: Plasma clearance in Sprague-Dawley rat at 5 mg/kg, po; format: ADME, organism-based; parameters: dose 5 mg/kg, route oral; conditions: in vivo
[11] = system: Rattus norvegicus; assay: as §1; format: ADME, organism-based, Plasma; parameters: time < 4 hr, dose 5 mg/kg, route oral; conditions: in vivo, 4 h
[12] = Oral bioavailability in Sprague-Dawley rat at 5 mg/kg; format: ADME, organism-based; conditions: in vivo
[13] = Plasma clearance in Beagle dog at 2 mg/kg, iv; format: ADME, organism-based, Canis lupus familiaris; parameters: dose 2 mg/kg, route intravenous
[14] = AUC in Sprague-Dawley rat at 5 mg/kg, po; format: ADME, organism-based; parameters: dose 5 mg/kg, route oral; conditions: plasma
[15] = AUC in Sprague-Dawley rat at 10 mg/kg, po; format: ADME, organism-based; parameters: dose 10 mg/kg, route oral; conditions: plasma
[16] = AUC in Sprague-Dawley rat at 20 mg/kg, po; format: ADME, organism-based; parameters: dose 20 mg/kg, route oral; conditions: plasma
[17] = AUC in Sprague-Dawley rat at 30 mg/kg, po; format: ADME, organism-based; parameters: dose 30 mg/kg, route oral; conditions: plasma
[18] = AUC in Beagle dog at 2 mg/kg, iv; format: ADME, organism-based, Canis lupus familiaris; parameters: dose 2 mg/kg, route intravenous; conditions: plasma
[19] = AUC in Beagle dog at 5 mg/kg, po; format: ADME, organism-based, Canis lupus familiaris; parameters: dose 5 mg/kg, route oral; conditions: plasma
[20] = AUC in Beagle dog at 10 mg/kg, po; format: ADME, organism-based, Canis lupus familiaris; parameters: dose 10 mg/kg, route oral; conditions: plasma
[21] = Cmax in Sprague-Dawley rat at 5 mg/kg, po; format: ADME, organism-based; parameters: dose 5 mg/kg, route oral; conditions: in vivo
[22] = Cmax in Sprague-Dawley rat at 10 mg/kg, po; format: ADME, organism-based; parameters: dose 10 mg/kg, route oral; conditions: in vivo
[23] = Cmax in Sprague-Dawley rat at 20 mg/kg, po; format: ADME, organism-based; parameters: dose 20 mg/kg, route oral; conditions: in vivo
[24] = Cmax in Sprague-Dawley rat at 30 mg/kg, po; format: ADME, organism-based; parameters: dose 30 mg/kg, route oral; conditions: in vivo
[25] = Cmax in Beagle dog at 2 mg/kg, iv; format: ADME, organism-based, Canis lupus familiaris; parameters: dose 2 mg/kg, route intravenous; conditions: in vivo
[26] = Cmax in Beagle dog at 5 mg/kg, po; format: ADME, organism-based, Canis lupus familiaris; parameters: dose 5 mg/kg, route oral; conditions: in vivo
[27] = Cmax in Beagle dog at 10 mg/kg, po; format: ADME, organism-based, Canis lupus familiaris; parameters: dose 10 mg/kg, route oral; conditions: in vivo
[28] = Bioavailability in Beagle dog at 2 mg/kg, iv; format: ADME, organism-based, Canis lupus familiaris; conditions: in vivo
[29] = Drug level in Sprague-Dawley rat liver at 5 mg/kg, po after 24 hrs; format: ADME, organism-based; parameters: dose 5 mg/kg, route oral; conditions: read-out: Drug uptake
[30] = Drug level in Sprague-Dawley rat liver at 20 mg/kg, po after 24 hrs; format: ADME, organism-based; parameters: dose 20 mg/kg, route oral; conditions: read-out: Drug uptake
[31] = Drug level in Sprague-Dawley rat liver at 30 mg/kg, po after 24 hrs; format: ADME, organism-based; parameters: dose 30 mg/kg, route oral; conditions: read-out: Drug uptake

C=C[C@@H]1C[C@]1(NC(=O)[C@@H]1C[C@@H]2CN1C(=O)[C@H](C(C)(C)C)NC(=O)OCCCCCc1ccc3ccnc(c3c1)O2)C(=O)NS(=O)(=O)C1CC1
Ki [1]: 0.2 nM | EC50 [2]: 8.7 nM | EC50 [3]: 46 nM | AUC(0-t) at 4 h [4]: 0.27 µM·h | concentration at 4 h [5]: 13400 nM

C=C[C@@H]1C[C@]1(NC(=O)[C@@H]1C[C@@H]2CN1C(=O)[C@H](C(C)C)Nc1nc(cs1)C(C)(C)CCCc1ccc3ccnc(c3c1)O2)C(=O)NS(=O)(=O)C1CC1.O=C(O)C(F)(F)F
Ki [1]: 3 nM | EC50 [2]: 20 nM | EC50 [3]: 100 nM | AUC(0-t) at 4 h [4]: 0.8 µM·h | concentration at 4 h [5]: 3600 nM

C=C[C@@H]1C[C@]1(NC(=O)[C@@H]1C[C@@H]2CN1C(=O)[C@H](C1CCCC1)Nc1nc(cs1)CCC/C=C/c1cccc3c1CN(C3)C(=O)O2)C(=O)NS(=O)(=O)C1CC1.O=C(O)C(F)(F)F
concentration at 4 h [6]: 180 nM | Ki [1]: 0.08 nM | EC50 [2]: 2 nM | EC90 [2]: 3 nM | EC50 [3]: 16 nM | EC90 [3]: 34 nM | bioavailability [7]: 36% | CL/F [8]: 25 mL/min/kg | AUC(0-t) at 4 h [9]: 0.7 µM·h

C=C[C@@H]1C[C@]1(NC(=O)[C@@H]1C[C@@H]2CN1C(=O)[C@H](C(C)C)Nc1nc(cs1)CCCCCc1ccc3ccnc(c3c1)O2)C(=O)NS(=O)(=O)C1CC1
Ki [1]: 1.5 nM | EC50 [2]: 120 nM | EC50 [3]: 830 nM

C=C[C@@H]1C[C@]1(NC(=O)[C@@H]1C[C@@H]2CN1C(=O)[C@H](C(C)C)Nc1nc(cs1)CCCCc1ccc3nc(-c4ccccc4)cc(c3c1)O2)C(=O)NS(=O)(=O)C1CC1.O=C(O)C(F)(F)F
Ki [1]: 0.5 nM | EC50 [2]: 40 nM | EC50 [3]: 390 nM | AUC(0-t) at 4 h [4]: < 0.01 µM·h | concentration at 4 h [5]: < 10 nM

CCC1C[C@]1(NC(=O)[C@@H]1C[C@@H]2CN1C(=O)[C@H](C1CCCCC1)Nc1nc(cs1)CCC/C=C/c1cccc3c1CN(C3)C(=O)O2)C(=O)NS(=O)(=O)C1CC1.O=C(O)C(F)(F)F (single isomer, unassigned)
concentration at 4 h [6]: 570 nM | Ki [1]: 0.16 nM | EC50 [2]: 12 nM | EC50 [3]: 50 nM | bioavailability [7]: < 0.01% | CL/F [8]: 56 mL/min/kg | AUC(0-t) at 4 h [9]: < 0.01 µM·h

C=C[C@@H]1C[C@]1(NC(=O)[C@@H]1C[C@@H]2CN1C(=O)[C@H](C(C)C)Nc1nc(cs1)CC/C=C/c1ccc3ccnc(c3c1)O2)C(=O)NS(=O)(=O)C1CC1.O=C(O)C(F)(F)F
Ki [1]: 5 nM | EC50 [2]: 30 nM | EC50 [3]: 730 nM | AUC(0-t) at 4 h [4]: 0.9 µM·h | concentration at 4 h [5]: 2400 nM

C=C[C@@H]1C[C@]1(NC(=O)[C@@H]1C[C@@H]2CN1C(=O)[C@H](C(C)C)Nc1nc(cs1)CCC/C=C/c1cccc3c1CN(C3)C(=O)O2)C(=O)NS(=O)(=O)C1CC1.O=C(O)C(F)(F)F
CL [10]: 21 mL/min/kg | Ki [1]: 0.16 nM | EC50 [2]: 5 nM | EC50 [3]: 50 nM | AUC [11]: 0.4 µM·h | concentration at 4 h [5]: 600 nM | bioavailability [12]: 8%

C=C[C@@H]1C[C@]1(NC(=O)[C@@H]1C[C@@H]2CN1C(=O)[C@H]([C@@H](C)CC)Nc1nc(cs1)CCC/C=C/c1cccc3c1CN(C3)C(=O)O2)C(=O)[N-]S(=O)(=O)C1CC1.[K+]
clearance [13]: 38 mL/min/kg | AUC [14]: 1.7 µM·h | AUC [15]: 2.5 µM·h | AUC [16]: 13.3 µM·h | AUC [17]: 21 µM·h | AUC [18]: 0.2 µM·h | AUC [19]: 0.5 µM·h | AUC [20]: 10 µM·h | Cmax [21]: 500 nM | Cmax [22]: 1400 nM | Cmax [23]: 5900 nM | Cmax [24]: 8000 nM | Cmax [25]: 60 nM | Cmax [26]: 1160 nM | Cmax [27]: 4000 nM | bioavailability [12]: 26% | bioavailability [28]: 17% | concentration at 24 h [29]: 10 nM | concentration at 24 h [30]: 40 nM | concentration at 24 h [31]: 60 nM

— ChEMBL document CHEMBL1154658, “Novel macrocyclic inhibitors of hepatitis C NS3/4A protease featuring a 2-amino-1,3-thiazole as a P4 carbamate replacement” (J Med Chem, 2009)
